# Results from ChEMBL document CHEMBL1177668, “(-)-N-Formylanonaine from Michelia alba as a human tyrosinase inhibitor and antioxidant” (Bioorg Med Chem, 2010).
# Active and inactive are the calls of the source. The calls are words filed in the database; no cut-off is given here.
# Key:
# [1] = system: Radical scavenging activity
# Description: Antioxidant activity assessed as DPPH free radical scavenging activity after 30 mins
# [2] = Antioxidant activity assessed as potassium ferric cyanide ion reducing power at 100 uM after 20 mins; assay type: functional
# [3] = target: T1, Tyrosinase (Homo sapiens) (UniProt P14679); assay: Inhibition of tyrosinase in human HEMn-MP assessed as oxidation of L-DOPA to dopaquinone at 100 uM after 2 days by spectrophotometric analysis
# T1 sequence (whole entry): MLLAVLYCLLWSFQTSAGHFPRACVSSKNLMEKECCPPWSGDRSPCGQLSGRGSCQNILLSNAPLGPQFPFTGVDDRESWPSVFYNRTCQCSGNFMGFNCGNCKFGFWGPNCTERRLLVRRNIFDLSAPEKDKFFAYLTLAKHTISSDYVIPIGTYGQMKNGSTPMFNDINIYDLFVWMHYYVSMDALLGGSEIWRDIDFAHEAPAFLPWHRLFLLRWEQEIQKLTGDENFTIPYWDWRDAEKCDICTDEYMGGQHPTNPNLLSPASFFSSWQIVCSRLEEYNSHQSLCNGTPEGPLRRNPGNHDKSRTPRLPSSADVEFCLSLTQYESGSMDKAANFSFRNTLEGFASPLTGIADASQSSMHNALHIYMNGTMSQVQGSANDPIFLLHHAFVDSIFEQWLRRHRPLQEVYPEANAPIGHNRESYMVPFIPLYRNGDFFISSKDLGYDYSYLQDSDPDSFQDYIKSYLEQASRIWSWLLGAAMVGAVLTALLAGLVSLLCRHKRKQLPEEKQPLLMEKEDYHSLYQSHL
# Homo sapiens [4] = species on record: Homo sapiens; assay: Induction of dendritic to bipolar morphology changes in human HEMn-MP at 10 uM after 12 to 60 hrs by phase contrast microscopic analysis; assay type: functional
# [5] = Cytotoxicity against human HEMn-MP after 48 hrs by MTT assay; settings: HEMn-MP cells
# Tyrosinase [6] = target: T2, Tyrosinase (Homo sapiens, UniProt P14679); assay: Inhibition of tyrosinase in human HEMn-MP assessed as reduction of melanin level after 2 days by spectrophotometric analysis
# T2 sequence (P14679 whole entry): T1 sequence (whole entry)
# Tyrosinase [7] = target: T3, Tyrosinase (Agaricus bisporus, UniProt O42713)
# T3 sequence (O42713 whole entry): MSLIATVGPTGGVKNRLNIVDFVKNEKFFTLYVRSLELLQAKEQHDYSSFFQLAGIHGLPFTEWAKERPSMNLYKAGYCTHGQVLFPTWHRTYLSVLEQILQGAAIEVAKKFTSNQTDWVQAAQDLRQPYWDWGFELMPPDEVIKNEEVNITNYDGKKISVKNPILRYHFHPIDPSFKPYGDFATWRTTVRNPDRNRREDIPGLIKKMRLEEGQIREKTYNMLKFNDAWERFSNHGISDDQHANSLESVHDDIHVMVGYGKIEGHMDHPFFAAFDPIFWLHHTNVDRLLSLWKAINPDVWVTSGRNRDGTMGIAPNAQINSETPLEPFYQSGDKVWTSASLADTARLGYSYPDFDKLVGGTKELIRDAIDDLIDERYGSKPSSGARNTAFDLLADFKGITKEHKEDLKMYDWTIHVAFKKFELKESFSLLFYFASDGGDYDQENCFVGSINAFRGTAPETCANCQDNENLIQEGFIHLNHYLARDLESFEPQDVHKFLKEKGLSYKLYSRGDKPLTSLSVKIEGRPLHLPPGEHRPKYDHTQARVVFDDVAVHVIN
# Description: Inhibition of mushroom tyrosinase after 30 mins by spectrophotometric analysis
# Fibroblast [8] = assay: Cytotoxicity against human fibroblasts assessed as cell viability at 200 uM after 48 hrs by MTT assay; assay type: cell-based
# [9] = Cytotoxicity against human HEMn-MP assessed as cell viability at 0.01 to 10 uM after 48 hrs by MTT assay; settings: HEMn-MP cells, read-out: Activity
# Homo sapiens [10] = species on record: Homo sapiens; assay: Induction of dendritic to bipolar morphology changes in human HEMn-MP at 200 uM after 12 to 60 hrs by phase contrast microscopic analysis; assay type: functional
# Homo sapiens [11] = species on record: Homo sapiens; assay: Induction of dendritic to bipolar morphology changes in human HEMn-MP at 100 uM after 48 hrs by phase contrast microscopic analysis; assay type: functional
# Homo sapiens [12] = species on record: Homo sapiens; assay: Reduction of melanin production in human HEMn-MP at 200 uM after 12 to 60 hrs by phase contrast microscopic analysis; assay type: functional
# Fibroblast [13] = assay: Cytotoxicity against human fibroblasts assessed as cell viability at 10 uM after 48 hrs by MTT assay; assay type: cell-based
# [14] = Cytotoxicity against human fibroblasts after 48 hrs by MTT assay; assay type: cell-based, Fibroblast
# [15] = Cytotoxicity against human fibroblasts assessed as cell viability at 100 uM after 48 hrs by MTT assay; assay type: cell-based, Fibroblast; settings: read-out: Activity
# [16] = Cytotoxicity against human HEMn-MP assessed as cell viability at 200 uM after 48 hrs by MTT assay
# [17] = Cytotoxicity against human HEMn-MP assessed as cell death at 100 uM after 48 hrs by MTT assay
# [18] = Cytotoxicity against human keratinocytes assessed as cell viability at 10 uM after 48 hrs by MTT assay; assay type: cell-based; settings: keratinocyte
# Homo sapiens [19] = species on record: Homo sapiens; assay: Reduction of melanin production in human HEMn-MP at 10 uM after 12 to 60 hrs by phase contrast microscopic analysis; assay type: functional
# [20] = Cytotoxicity against human keratinocytes after 48 hrs by MTT assay; assay type: cell-based, Keratinocyte
# [21] = Cytotoxicity against human HEMn-MP assessed as cell death at 10 to 200 uM after 2 to 60 hrs by phase contrast microscopic analysis
smiles,measurement,setting,value
O=C1O[C@H]([C@@H](O)CO)C(O)=C1O [ASCORBIC ACID],IC50,[1],52.1 µM
COc1ccc(O)c(C(C)(C)C)c1.COc1ccc(O)cc1C(C)(C)C,OD,[2],1.28
O=CN1CCc2cc3c(c4c2[C@H]1Cc1ccccc1-4)OCO3,Activity,[3],Active
same,Activity,Homo sapiens [4],Active
same,CC50 at 48 h,[5],735 µM
same,EC50,Tyrosinase [6],90 µM
same,IC50,Tyrosinase [7],74.3 µM
same,Activity,Fibroblast [8],Non-toxic
same,"viability at 48 h, 10 µM",[9],90%
same,Activity,Homo sapiens [10],Active
same,Activity,Homo sapiens [11],Active
same,OD,[2],0.56
same,Activity,Homo sapiens [12],Active
same,Activity,Fibroblast [13],Non-toxic
same,CC50 at 48 h,[14],325 µM
same,IC50,[1],121 µM
same,"viability at 48 h, 100 µM",[15],70%
same,Activity,[16],Toxic
same,Activity,[17],Toxic
same,Activity,[18],Non-toxic
same,Activity,Homo sapiens [19],Active
same,CC50 at 48 h,[20],355 µM
same,Activity,[21],Non-toxic
